Measured values published in paper PMC11678425, “(-)-Syringaresinol Exerts an Antidepressant-like Activity in Mice by Noncompetitive Inhibition of the Serotonin Transporter” (Pharmaceuticals, 2024).

Key:
c-Fos = c-Fos immunohistochemistry in mPFC of CUMS mice; type: in vivo, mouse; conditions: 10 mg/kg i.p.
Procedure: (§1) Figure 7 SYR effects on the expression of c-Fos and synaptic proteins in mPFC. (A) Representative immunohistochemical images of c-Fos expression in mPFC under the indicated treatments. Immunohistochemistry of c-Fos was performed with mPFC slices as described in Section 4. The slices were re-probed with anti-DAPI antibody. Immunofluorescence images for c-Fos (green) and DAPI (blue) were acquired by confocal microscopy. (B) Quantitative analysis for c-Fos expression in mPFC with various treatments. Protein expression is expressed as a percentage of c-Fos fluorescence measured in the control group. Bars represent the mean ± SEM (n = 4). * p < 0.05, ** p < 0.01 compared with the control or CUMS group by one-way ANOVA followed by post hoc tests, respectively. (C) Representative immunoblots of the synaptic proteins BDNF, PSD-95, GluA1, and vGluT1 with various treatments. (D–G) Quantification of the expression of the synaptic proteins BDNF (D), PSD-95 (E), GluA1 (F), and vGluT1 (G). The expression level is expressed as a percentage of the integrated density obtained from the control group. Bars represent the mean ± SEM (n = 4). * p < 0.05, ** p < 0.01 by one-way ANOVA followed by post hoc tests.
Mouse mPFC and hippocampal slices were prepared as previously described. […]

[1] = system: hSERT S1 mutants (Y95F, I172F, S438T); experiment: ASP^+ binding, S1 site mutants compared with WT; set-up: species or system human; conditions: Tyr95 to Phe, Ile172 to Phe, Ser438 to Thr
Procedure: HeLa cells were cultured in Dulbecco’s Modified Eagle’s Medium supplemented with 10% fetal bovine serum, 100 units/mL penicillin, and 100 μg/mL streptomycin at 37 °C in a humidified 5% CO2 incubator. Cells grown at ~70% confluence in a 6 cm culture dish were transfected with hSERT cDNA in pcDNA3.1 by lipofectamine 2000. Transfected cells were incubated for 12 h at 37 °C with 5% CO2 and then transferred into 96-well plates. After being grown for an additional 12–16 h, the cells were then assayed for APP^+ uptake or ASP^+ binding.
ASP^+ binding to SERT expressed on the cell surface was measured with digitonin-permeabilized cells as described previously. The cells expressing WT or mutants of hSERT were incubated with 10 μM ASP^+ in the presence of 25 μg/mL digitonin at 22 °C for 5 min. After removing excess ASP^+ by 3× rapid washing, ASP^+ fluorescence retained in the cell membrane was determined by fluorescence spectrometry.
hSERT mutants were generated using the Mut Express II Fast Mutagenesis kit (Vazyme, Nanjing, China). Briefly, forward and reverse primers were used to amplify a full-length hSERT. The PCR products were then digested with restriction enzymes, excised from agarose gels, and ligated into pcDNA3.1. All mutations were confirmed by full-length DNA sequencing.

CUMS mice [2] = experiment: Forced swim test (FST) in CUMS mice; type: in vivo, mouse
Procedure: C57BL/6 adult (6–8 weeks, body weight, 18–22 g) male mice were maintained and handled in a standard condition at the Experimental Animal Center of Southern Medical University (Guangzhou, China). Animal use was approved by the Animal Use and Care Committee of Southern Medical University (approved code: SMUL2021177, approved date: 12 December 2021). The CUMS procedure was carried out according to a protocol described previously. Except for those in the control group, mice were randomly exposed to two mild unpredictable stressors per day for 3 weeks. The stressors included water deprivation, restraint, tilted cage, wet/no bedding, rotation, peppermint, noise, and inverted light off/on. Mice in the control group were group housed without any stressors throughout the procedure. […] NSFT was performed after 16 h food deprivation, as described previously. The mouse was placed in an open field (24 × 40 × 14 cm), where a new chow was put in the center, and the latency time to bite food was counted over 10 min. Home cage feeding within a 20 min period was measured after the test. FST was carried out according to a protocol described previously. The mouse was placed into a beaker (Bomex, Beijing, China) with a height of 18 cm filled with water (22 ± 1 °C) for 6 min. The immobile time was measured during minutes 2–6. TST was performed according to a previous description. The mouse was suspended from a hook that hung from a suspension bar by placing a piece of adhesive tape on its tail about 1 cm away from the tip. The immobile time during minutes 2–6 was measured.

hSERT T497A = biological target: T1, hSERT T497A (Homo sapiens, UniProt P31645, T497A); experiment: ASP^+ binding, hSERT T497A; conditions: S2 site mutant, read-out: SYR IC50 for Binding
T1 construct: forward and reverse primers were used to amplify a full-length hSERT; expressed in transfected cells; host or cells: HeLa cells, transient, pcDNA3.1

hSERT Y95F = biological target: T2, hSERT Y95F (Homo sapiens, UniProt P31645, Y95F); experiment: ASP^+ binding, hSERT Y95F; conditions: S1 site mutant, read-out: SYR IC50 for Binding
T2 construct: forward and reverse primers were used to amplify a full-length hSERT; expressed in transfected cells; host or cells: HeLa

[3] = system: BDNF, PSD-95, GluA1, and vGluT1; experiment: Immunoblot of synaptic proteins in mPFC of CUMS mice; type: in vivo, mouse; conditions: SYR administration
Procedure: as §1, with “(C) Representative immunoblots of the synaptic proteins BDNF, PSD-95, GluA1, and vGluT1 with various treatments.” left out, “Bars represent the mean ± SEM (n = 4). * p < 0.05, ** p < 0.01 by one-way ANOVA followed by post hoc tests.” left out
Synaptic proteins were extracted from mPFC or hippocampus tissues using RIPA lysis buffer, respectively. Expression of the indicated proteins under various treatments was then analyzed by immunoblotting, as previously reported. […] Quantification of immunoreactive protein bands was performed using Image J v1.53u, and GAPDH was used as an internal reference to normalize expression levels of those proteins, respectively.

CUMS mice [4] = conditions: all tested dosages, i.p.

T2 sequence (P31645 whole entry Y95F): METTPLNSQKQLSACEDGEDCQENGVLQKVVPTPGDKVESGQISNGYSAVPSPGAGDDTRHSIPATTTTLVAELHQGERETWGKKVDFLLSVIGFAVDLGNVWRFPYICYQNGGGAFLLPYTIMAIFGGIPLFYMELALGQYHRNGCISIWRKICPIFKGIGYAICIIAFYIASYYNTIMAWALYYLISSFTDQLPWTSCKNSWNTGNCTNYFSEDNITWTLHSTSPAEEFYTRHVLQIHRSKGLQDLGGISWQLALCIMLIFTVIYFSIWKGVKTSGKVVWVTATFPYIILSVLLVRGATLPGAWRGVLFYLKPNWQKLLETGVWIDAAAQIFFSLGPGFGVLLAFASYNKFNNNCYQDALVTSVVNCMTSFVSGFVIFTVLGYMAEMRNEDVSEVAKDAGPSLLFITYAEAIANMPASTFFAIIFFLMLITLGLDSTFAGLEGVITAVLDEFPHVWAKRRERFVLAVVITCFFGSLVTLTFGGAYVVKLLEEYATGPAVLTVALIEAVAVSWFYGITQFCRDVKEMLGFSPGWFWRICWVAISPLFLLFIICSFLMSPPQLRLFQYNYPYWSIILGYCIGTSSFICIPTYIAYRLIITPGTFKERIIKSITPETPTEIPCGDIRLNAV
T1 sequence (P31645 whole entry T497A): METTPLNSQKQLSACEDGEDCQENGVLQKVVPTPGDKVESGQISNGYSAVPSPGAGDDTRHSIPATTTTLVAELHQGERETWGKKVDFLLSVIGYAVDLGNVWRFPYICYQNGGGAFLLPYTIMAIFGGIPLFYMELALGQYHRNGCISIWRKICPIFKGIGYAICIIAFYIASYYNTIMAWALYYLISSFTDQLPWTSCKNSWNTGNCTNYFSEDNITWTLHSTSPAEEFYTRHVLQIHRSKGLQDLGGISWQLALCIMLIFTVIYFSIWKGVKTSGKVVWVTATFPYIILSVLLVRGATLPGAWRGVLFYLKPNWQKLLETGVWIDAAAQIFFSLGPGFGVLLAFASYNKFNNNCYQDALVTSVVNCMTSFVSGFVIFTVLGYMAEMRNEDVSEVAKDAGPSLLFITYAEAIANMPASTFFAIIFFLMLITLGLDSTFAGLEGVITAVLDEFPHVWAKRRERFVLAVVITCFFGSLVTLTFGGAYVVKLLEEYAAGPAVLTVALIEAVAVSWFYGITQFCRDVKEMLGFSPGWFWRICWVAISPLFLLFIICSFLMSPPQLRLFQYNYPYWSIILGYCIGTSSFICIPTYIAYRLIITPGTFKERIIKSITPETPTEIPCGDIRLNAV

In the case of COc1cc([C@@H]2OC[C@@H]3[C@H]2CO[C@H]3c2cc(OC)c(O)c(OC)c2)cc(OC)c1O [SYR, (-)-syringaresinol], the “CUMS-induced decrease in expression of c-Fos in mPFC” value (c-Fos) is reported as “significantly elevated”, the “effect of S1 site mutations on SYR inhibition of ASP^+ binding” value [1] is reported as “little effect” and the “reversal of behavioral abnormalities in FST” value (CUMS mice [2]; 5 mg/kg, i.p., once per day day 7 to 21) is reported as “did not exhibit a significant response”. For the same compound, the “effect in FST” value (CUMS mice [2]; 10 or 20 mg/kg (i.p.)) was “remarkable antidepressant-like effects”, the IC50 (hSERT T497A) was 43.7 ± 2.6 µM and the IC50 (hSERT Y95F) was 1.21 ± 0.01 µM. The “CUMS-induced reduction in expression of synaptic proteins BDNF, PSD-95, GluA1, vGluT1 in mPFC” value [3] was “attenuated” and the fatality rate (CUMS mice [4]) was “zero fatality rate”.
